# Data: patent publication US12077503B2, “Substituted cyclic amides and their use as herbicides” (FMC CORPORATION, priority 2015, dated 2024)
# Assays:
# Type in all cases: in vivo
# corn (Zea mays) [1] = assay: Test G Pre-Emergence Protocol; conditions: Zea mays, pre-emergence, 312 h, evaluated after 13 days; for plant injury at 15.625 g/ha: 15.625 g ai/ha; for plant injury at 15.625 g/ha / plant injury at 250 g/ha: read-out: Corn damage rating (100=total damage to plant; 0=no damage to plant); for plant injury at 62.5 g/ha: 62.5 g ai/ha, 100=total damage to plant, 0=no damage to plant, read-out: Corn damage rating; for plant injury at 250 g/ha: 250 g ai/ha
# Summary of the method: (§1)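 Pre-emergence spray, 15.625/62.5/250 g/ha, vehicle acetone:water 50:50 + 0.5% Tween 20, applied 1 d after sowing. Glasshouse 24/16° C, 14 h light, 65% RH, watered twice daily. Visual damage rating at 13 d, 0–100 scale.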
# [2] = tested on: velvetleaf (Abutilon theophrasti); assay: Test G Pre-Emergence Protocol; conditions: Abutilon theophrasti, pre-emergence, 312 h, evaluated after 13 days; for pest or weed control at 15.625 g/ha: 15.625 g ai/ha; for pest or weed control at 15.625 g/ha / pest or weed control at 250 g/ha: read-out: Velvetleaf damage rating (100=total damage to plant; 0=no damage to plant); for pest or weed control at 62.5 g/ha: 62.5 g ai/ha, 100=total damage to plant, 0=no damage to plant, read-out: Velvetleaf damage rating; for pest or weed control at 250 g/ha: 250 g ai/ha
# Summary of the method: as §1
# [3] = tested on: redroot pigweed (Amaranthus retroflexus); assay: Test G Pre-Emergence Protocol; conditions: Amaranthus retroflexus, pre-emergence, 312 h, evaluated after 13 days; for pest or weed control at 15.625 g/ha: 15.625 g ai/ha; for pest or weed control at 15.625 g/ha / pest or weed control at 250 g/ha: read-out: Pigweed, Redroot damage rating (100=total damage to plant; 0=no damage to plant); for pest or weed control at 62.5 g/ha: 62.5 g ai/ha, 100=total damage to plant, 0=no damage to plant, read-out: Pigweed, Redroot damage rating; for pest or weed control at 250 g/ha: 250 g ai/ha
# Summary of the method: as §1
# [4] = tested on: barnyardgrass (Echinochloa crus-galli); assay: Test G Pre-Emergence Protocol; conditions: Echinochloa crus-galli, pre-emergence, 312 h, evaluated after 13 days; for pest or weed control at 15.625 g/ha: 15.625 g ai/ha; for pest or weed control at 15.625 g/ha / pest or weed control at 250 g/ha: read-out: Barnyardgrass damage rating (100=total damage to plant; 0=no damage to plant); for pest or weed control at 62.5 g/ha: 62.5 g ai/ha, 100=total damage to plant, 0=no damage to plant, read-out: Barnyardgrass damage rating; for pest or weed control at 250 g/ha: 250 g ai/ha
# Summary of the method: as §1
# [5] = tested on: giant foxtail (Setaria faberi); assay: Test G Pre-Emergence Protocol; conditions: Setaria faberi, pre-emergence, 312 h, evaluated after 13 days; for pest or weed control at 15.625 g/ha: 15.625 g ai/ha; for pest or weed control at 15.625 g/ha / pest or weed control at 250 g/ha: read-out: Foxtail, Giant damage rating (100=total damage to plant; 0=no damage to plant); for pest or weed control at 62.5 g/ha: 62.5 g ai/ha, 100=total damage to plant, 0=no damage to plant, read-out: Foxtail, Giant damage rating; for pest or weed control at 250 g/ha: 250 g ai/ha
# Summary of the method: as §1
# [6] = tested on: ivy-leaved morning glory (Ipomoea hederacea); assay: Test G Pre-Emergence Protocol; conditions: Ipomoea, pre-emergence, 312 h, evaluated after 13 days; for pest or weed control at 15.625 g/ha: 15.625 g ai/ha; for pest or weed control at 15.625 g/ha / pest or weed control at 250 g/ha: read-out: Morningglory, Ivy-leaved damage rating (100=total damage to plant; 0=no damage to plant); for pest or weed control at 62.5 g/ha: 62.5 g ai/ha, 100=total damage to plant, 0=no damage to plant, read-out: Morningglory, Ivy-leaved damage rating; for pest or weed control at 250 g/ha: 250 g ai/ha
# Summary of the method: as §1
# corn (Zea mays) [7] = assay: Test G Post-Emergence Protocol; conditions: Zea mays, post-emergence, 312 h, read-out: Corn damage rating; for plant injury at 15.625 g/ha: 15.625 g ai/ha, evaluated after 13 days (100=total damage to plant; 0=no damage to plant); for plant injury at 62.5 g/ha: 62.5 g ai/ha; for plant injury at 62.5 g/ha / plant injury at 250 g/ha: evaluated after 13 days, 100=total damage to plant, 0=no damage to plant; for plant injury at 250 g/ha: 250 g ai/ha
# Summary of the method: (§2)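 Post-emergence herbicidal damage, scored visually 0–100 at 13 days. Application at 15.625, 62.5 or 250 g/ha onto 8-day-old plants grown under glasshouse control.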
# [8] = tested on: velvetleaf (Abutilon theophrasti); assay: Test G Post-Emergence Protocol; conditions: Abutilon theophrasti, post-emergence, 312 h, read-out: Velvetleaf damage rating; for pest or weed control at 15.625 g/ha: 15.625 g ai/ha, evaluated after 13 days (100=total damage to plant; 0=no damage to plant); for pest or weed control at 62.5 g/ha: 62.5 g ai/ha; for pest or weed control at 62.5 g/ha / pest or weed control at 250 g/ha: evaluated after 13 days, 100=total damage to plant, 0=no damage to plant; for pest or weed control at 250 g/ha: 250 g ai/ha
# Summary of the method: as §2
# [9] = tested on: redroot pigweed (Amaranthus retroflexus); assay: Test G Post-Emergence Protocol; conditions: Amaranthus retroflexus, post-emergence, 312 h, read-out: Pigweed, Redroot damage rating; for pest or weed control at 15.625 g/ha: 15.625 g ai/ha, evaluated after 13 days (100=total damage to plant; 0=no damage to plant); for pest or weed control at 62.5 g/ha: 62.5 g ai/ha; for pest or weed control at 62.5 g/ha / pest or weed control at 250 g/ha: evaluated after 13 days, 100=total damage to plant, 0=no damage to plant; for pest or weed control at 250 g/ha: 250 g ai/ha
# Summary of the method: as §2
# [10] = tested on: barnyardgrass (Echinochloa crus-galli); assay: Test G Post-Emergence Protocol; conditions: Echinochloa crus-galli, post-emergence, 312 h, read-out: Barnyardgrass damage rating; for pest or weed control at 15.625 g/ha: 15.625 g ai/ha, evaluated after 13 days (100=total damage to plant; 0=no damage to plant); for pest or weed control at 62.5 g/ha: 62.5 g ai/ha; for pest or weed control at 62.5 g/ha / pest or weed control at 250 g/ha: evaluated after 13 days, 100=total damage to plant, 0=no damage to plant; for pest or weed control at 250 g/ha: 250 g ai/ha
# Summary of the method: as §2
# [11] = tested on: giant foxtail (Setaria faberi); assay: Test G Post-Emergence Protocol; conditions: Setaria faberi, post-emergence, 312 h, read-out: Foxtail, Giant damage rating; for pest or weed control at 15.625 g/ha: 15.625 g ai/ha, evaluated after 13 days (100=total damage to plant; 0=no damage to plant); for pest or weed control at 62.5 g/ha: 62.5 g ai/ha; for pest or weed control at 62.5 g/ha / pest or weed control at 250 g/ha: evaluated after 13 days, 100=total damage to plant, 0=no damage to plant; for pest or weed control at 250 g/ha: 250 g ai/ha
# Summary of the method: as §2
# [12] = tested on: ivy-leaved morning glory (Ipomoea hederacea); assay: Test G Post-Emergence Protocol; conditions: Ipomoea, post-emergence, 312 h, read-out: Morningglory, Ivy-leaved damage rating; for pest or weed control at 15.625 g/ha: 15.625 g ai/ha, evaluated after 13 days (100=total damage to plant; 0=no damage to plant); for pest or weed control at 62.5 g/ha: 62.5 g ai/ha; for pest or weed control at 62.5 g/ha / pest or weed control at 250 g/ha: evaluated after 13 days, 100=total damage to plant, 0=no damage to plant; for pest or weed control at 250 g/ha: 250 g ai/ha
# Summary of the method: as §2
SMILES,plant injury at 15.625 g/ha (corn (Zea mays) [1]) [%],plant injury at 62.5 g/ha (corn (Zea mays) [1]) [%],plant injury at 250 g/ha (corn (Zea mays) [1]) [%],pest or weed control at 15.625 g/ha [2] [%],pest or weed control at 62.5 g/ha [2] [%],pest or weed control at 250 g/ha [2] [%],pest or weed control at 15.625 g/ha [3] [%],pest or weed control at 62.5 g/ha [3] [%],pest or weed control at 250 g/ha [3] [%],pest or weed control at 15.625 g/ha [4] [%],pest or weed control at 62.5 g/ha [4] [%],pest or weed control at 250 g/ha [4] [%],pest or weed control at 15.625 g/ha [5] [%],pest or weed control at 62.5 g/ha [5] [%],pest or weed control at 250 g/ha [5] [%],pest or weed control at 15.625 g/ha [6] [%],pest or weed control at 62.5 g/ha [6] [%],pest or weed control at 250 g/ha [6] [%],plant injury at 15.625 g/ha (corn (Zea mays) [7]) [%],plant injury at 62.5 g/ha (corn (Zea mays) [7]) [%],further results
Cc1cc(C2CN(C)C(=O)C2C(=O)Nc2cccc(F)c2F)cc(Cl)c1F (stereo not drawn) [Compound 1708],0,0,0,0,0,0,0,0,0,20,30,60,60,80,90,0,0,20,10,30,plant injury at 250 g/ha (corn (Zea mays) [7]): 70%; pest or weed control at 15.625 g/ha [8]: 0%; pest or weed control at 62.5 g/ha [8]: 0%; pest or weed control at 250 g/ha [8]: 0%; pest or weed control at 15.625 g/ha [9]: 0%; pest or weed control at 62.5 g/ha [9]: 0%; pest or weed control at 250 g/ha [9]: 0%; pest or weed control at 15.625 g/ha [10]: 40%; pest or weed control at 62.5 g/ha [10]: 50%; pest or weed control at 250 g/ha [10]: 80%; pest or weed control at 15.625 g/ha [11]: 40%; pest or weed control at 62.5 g/ha [11]: 60%; pest or weed control at 250 g/ha [11]: 60%; pest or weed control at 15.625 g/ha [12]: 20%; pest or weed control at 62.5 g/ha [12]: 20%; pest or weed control at 250 g/ha [12]: 20%
CN1CC(c2ccc(C(F)(F)F)c(C(F)(F)F)c2)C(C(=O)Nc2cccc(F)c2F)C1=O (stereo not drawn) [Compound 1714],0,0,10,0,0,0,0,0,10,0,50,80,30,70,80,0,0,10,20,30,plant injury at 250 g/ha (corn (Zea mays) [7]): 50%; pest or weed control at 15.625 g/ha [8]: 0%; pest or weed control at 62.5 g/ha [8]: 30%; pest or weed control at 250 g/ha [8]: 40%; pest or weed control at 15.625 g/ha [9]: 70%; pest or weed control at 62.5 g/ha [9]: 80%; pest or weed control at 250 g/ha [9]: 90%; pest or weed control at 15.625 g/ha [10]: 40%; pest or weed control at 62.5 g/ha [10]: 70%; pest or weed control at 250 g/ha [10]: 80%; pest or weed control at 15.625 g/ha [11]: 70%; pest or weed control at 62.5 g/ha [11]: 80%; pest or weed control at 250 g/ha [11]: 80%; pest or weed control at 15.625 g/ha [12]: 10%; pest or weed control at 62.5 g/ha [12]: 20%; pest or weed control at 250 g/ha [12]: 60%
CCOc1c(Cl)cc(C2CN(C)C(=O)C2C(=O)Nc2cccc(F)c2F)cc1OC (stereo not drawn) [Compound 1721],10,0,0,0,0,0,0,0,0,0,50,80,30,60,90,0,0,0,0,10,plant injury at 250 g/ha (corn (Zea mays) [7]): 10%; pest or weed control at 15.625 g/ha [8]: 0%; pest or weed control at 62.5 g/ha [8]: 0%; pest or weed control at 250 g/ha [8]: 0%; pest or weed control at 15.625 g/ha [9]: 0%; pest or weed control at 62.5 g/ha [9]: 0%; pest or weed control at 250 g/ha [9]: 0%; pest or weed control at 15.625 g/ha [10]: 0%; pest or weed control at 62.5 g/ha [10]: 30%; pest or weed control at 250 g/ha [10]: 80%; pest or weed control at 15.625 g/ha [11]: 0%; pest or weed control at 62.5 g/ha [11]: 50%; pest or weed control at 250 g/ha [11]: 80%; pest or weed control at 15.625 g/ha [12]: 0%; pest or weed control at 62.5 g/ha [12]: 40%; pest or weed control at 250 g/ha [12]: 70%
